Experimental data taken from patent US20250332223A1, “GHRH ANTAGONISTS FOR USE IN A METHOD OF TREATING SARCOIDOSIS” (University of Miami, priority 2019, published 2025).
Entries after “also recorded” stand apart in the source; their conditions may differ.

Key:
[1] = test system: mouse model of pulmonary sarcoidosis; experiment: Mouse model of pulmonary sarcoidosis, lung inflammation grading (Example 1); format: in vivo, C57B1/6 mice; conditions: sarcoidosis mice, treated two weeks, vs saline-treated sarcoidosis group; MIA-602 5 μg/day intraperitoneal; FIGS. 1A-E
Experimental: Granulomatous reaction in the mouse lung was developed as previously described (Zhang et al., Front Immunol 2019; 10: 2888).
(§1) The detail of the methodology used for confocal microscopy is discussed in Zhang et al., Front Immunol 2019; 10: 2888. To summarize, mice were killed on day 14, and the left lungs were harvested. Lungs were filled with 10% buffered formalin and fixed in formalin for at least 72 h before IHC staining. H&E staining was used to determine inflammatory pathology.
(§2) Lung inflammation was scored using the three fields with the highest infiltrate's intensity at 100× power magnification as previously described (Zhang et al., Front Immunol 2019; 10: 2888). The area of inflammation was measured and averaged for the three examined high-power fields.
A mouse model of pulmonary sarcoidosis was established in C57B1/6 mice by administering microparticles intratracheally. The tongue was pulled out with a small spatula and microparticles were inserted into the trachea using a 20 G angio-catheter tube at the time of laryngeal opening and advanced to main bronchus until reach to resistant. After tube placement, microparticles were administered: a first dose of 5×10^8 CFU of M. abscessus in 50 μL with three subsequent doses of 2×10^8 CFU of M. abscessus in 20 μL. A control group received only 20 μL PBS intratracheally. Mice receiving microparticles developed noncaseating granuloma in the lung, as observed use H&E staining and immunohistochemistry staining for CD68 macrophage marker, CD4 marker, and PD-L1.
The first sarcoidosis group received MIA-602 (5 μg/day), administered via intraperitoneal injection. The second sarcoidosis group received α-melanocyte stimulating hormone (α-MSH), the third sarcoidosis group received steroid treatment (methyl-prednisone, the current first line treatment for sarcoidosis), and the fourth group received only saline. Mice were sacrificed after two weeks, and inflammation in lung samples was graded.

sarcoidosis mice model [2] = experiment: NOS2 and nitrotyrosine staining of lung in sarcoidosis mice model (Example 6); format: in vivo; conditions: daily intraperitoneal MIA-602 5 μg, lung harvested after three weeks
Experimental: (§3) For immunohistochemistry, 5-μm paraffin sections were processed by deparaffinization and rehydration followed by endogenous peroxidase blocking (1% H2O2 in methanol for 20 minutes) and antigen retrieval (boiled in 10 mM citrate buffer for 30 minutes). Tissue sections were blocked with 2% goat or horse serum (Vector Laboratories) and incubated with antibody CD68 (Proteintech, Cat #25747-1-AP), PD-1 (Cell Signaling, cat #84651), PD-L1 (Proteintech, Cat #17952-1-AP), CD30 (Lsbio, cat #LS-c162069) CD3 (Cell Signaling, cat #99940), iNOS (Invitrogen, cat #PAI-036), or Nitrotyrosine (Novus, NBP2-54606) over night at 4° C., washed with TBST five times, then exposed to secondary antibodies (Vector Laboratories, cat #PI-2000). Immunoreactivity was detected using the ABC Elite kit (Vector Laboratories). DAB was used as final chromogen and hematoxylin as the nuclear counterstain. Negative controls for all antibodies were made by replacing the primary antibody with non-immunogen IgG.
Inducible nitric oxide synthases (iNOS) produces nitric oxide and has a crucial role in granuloma development. iNOS is expressed in macrophages after exposure to bacterial lipopolysaccharides and IFNγ (Facchetti et al., Am J Pathol 1999; 154: 145-152). […] Lung tissue was harvested after three weeks and tissue stained with NOS2 and nitrotyrosine. […] The finding was not statistically significant.

[3] = test system: mouse pulmonary granulomatous model; experiment: Mouse pulmonary granulomatous model, H&E and IHC scoring of lung (Example 4); format: in vivo, C57B1/6 mice
Experimental: as §1, §3, §2
A mouse pulmonary granulomatous model was established for studying type I IFN pathways after exposure to M. abscessus cell wall. The model is applicable for pulmonary sarcoidosis studies due to its characteristics of noninfectious lung granulomatous model. C57B1/6 mice were used to develop the model (Zhang et al., Front Immunol 2019; 10: 2888).
Mice were treated with 5 μg of a peptide of the disclosure, MIA-602, per day via intraperitoneal injection. After two weeks, the mice were sacrificed, and lung inflammation was graded by a lung pathologist. Lung samples were stained with H&E, CD68, PD1, PD-L1, and CD30, and scored based on percentage of cells expressing each marker.

[4] = test system: in vitro granuloma model (PBMCs challenged with microparticles); experiment: Pro- and anti-apoptotic protein levels in in vitro granuloma model (Example 3); format: cell-based, human; conditions: 1 μM MIA-602, 48 h
Experimental: In vitro granuloma was developed by challenging PBMC with microparticles as previously described (Zhang et al., Sci Rep 2020; 10: 7277). (Zhang et al., Sci Rep 2020; 10: 7277), PBMCs were lysed in lysis buffer (Cell Signaling Technology, Beverly, MA) with protease inhibitor cocktail (Cell Signaling Technology, Beverly, MA) and sonicated three times for 2 seconds each with at least 1-min rest on ice between each 2-s pulse. Samples were centrifuged at 10,000×g for 5 min at 4° C. and the supernatant was collected. Protein concentration was determined by BCA protein assay kit from Cell Signaling Technology. The methodology is further described in .Zhang et al., Sci Rep 2020; 10: 7277. Thirty micrograms of total protein were mixed in a reducing sample buffer and used for mitochondrial apoptosis assay per the kit instruction. The assay was performed using a Bio-Rad kit (171-WAR3CK). The ability of a peptide of the disclosure, MIA-602, to influence respiration and apoptosis in granuloma cells was examined. The specific processes of apoptosis and mitochondrial dynamics in granuloma have not been fully elucidated. To test if MIA-602 had pro- or anti-apoptotic effects, the protein levels of pro-(active caspase-3) and anti-apoptotic factors (survivin, Bcl-xL/Bak dimer, and Mcl-1/Bak dimer) were measured in an in vitro granuloma model. […] Media were removed 48 h after treatment.

[5] = test system: granuloma (PBMC challenged with microparticles); experiment: Cytokine production in in vitro granuloma from PBMC of sarcoidosis subjects, multiplex ELISA (Example 2); format: cell-based, human; conditions: 1 microM MIA-602, 48 h, media
Experimental: In vitro granuloma was developed by challenging PBMC with microparticles as previously described (Zhang et al., Sci Rep 2020; 10: 7277).
To measure cytokines in media, supernatant aliquot samples were analyzed, thawed, and spun at 12,000 rpm for 10 min to separate the particulate material at the bottom. Fifty μl of undiluted media was plated from each sample onto a 96-well V-bottom plate (source plate) by manual pipetting according to predefined maps. The aliquots were wrapped in parafilm and kept in a humid chamber at 4° C. during the entire process, but not longer than 72 hr. Growth factors and their receptor's capture antibodies were reconstituted and diluted per manufacturer specification and 50 μl plated into each well of respective 96-well high-binding half-well plates, which were then sealed and incubated overnight at 4° C. The cytokine levels were measured using a procartaplex human th1/th2 cytokine panel 11 plex from Invitrogen, (epx110-10810-901).
Granuloma and PBMC were collected from five sarcoidosis subjects. The samples were grouped as control (not challenged), granuloma group challenged with a 10:1 treatment with microparticles but left untreated, challenged granuloma group treated with 1 microM MIA-602 in vitro, and challenged granuloma group treated with methyl prednisolone in vitro. Media were removed 48 h after of treatments. Cytokines were measured using an multiplex ELISA instrument.

sarcoidosis mice model [6] = experiment: RNASeq transcriptomics of lung in sarcoidosis mice model (Example 7); format: in vivo; conditions: granuloma mice, daily MIA-602 5 μg intraperitoneal vs saline
Experimental: RNA from mouse lungs were extracted using RNA Miniprep Plus Kit (Zymo Research). Briefly, whole lung was homogenized in TRI reagent and total RNA extraction was performed following the instructions provided by the manufacturer with additional DNase treatment. Quantity and quality of the samples were determined by NanoDrop spectrophotometer and Agilent Bioanalyzer 2100, respectively (Zhang et al., Front Immunol 2019; 10: 2888).
Preparation and sequencing of RNA libraries was performed. Briefly, total RNA quantity and quality were determined using the Agilent Bioanalyzer. At least 300 ng of total RNA was used as input for the KAPA RNA HyperPrep Kit with RiboErase (HMR) according to manufacturer's protocol to create ribosomal RNA-depleted sequencing libraries. Sequencing was performed on the Illumina NextSeq 500, generating ˜40 million single-end 75 base reads per sample. Sequencing data were processed with a bioinformatics pipeline including quality control, alignment to the […], and gene quantification. Count data was inputted into edgeR software for differential expression analysis. Counts were normalized using the trimmed mean of M-values (TMM) method to account for compositional difference between the libraries and paired differential expression analysis using a generalized linear model with sample as a blocking factor. […]

sarcoidosis mice model [7] = experiment: Flow cytometry of lung single cells in sarcoidosis mice model (Example 5); format: in vivo; conditions: MIA-602 5 μg, two weeks
Experimental: Mice were sacrificed on day 14, and the left lungs were harvested for pathology after perfusing the right ventricle with 10 ml of PBS.
The upper half of left lung tissue (without trachea, main bronchus and branches) was removed and rinsed by PBS to clean off blood. The tissue was minced and dispersed with a scissors to increase total surface area. To develop single cell suspension, the rubber end of a 5 ml plastic syringe was used to mesh cells through a 100 μm cell strainer with continuous rinse using ice-cold RPMI 1640. Cell suspension was again meshed through a 70 μm cell strainer and rinsed thoroughly with 3 ml of washing buffer containing DNAse followed by 15 ml of DNAse-free washing buffer. The sample was centrifuged at 286×g and 18° C. for 5 min, and the supernatant was discarded (Posel et al. J Vis Exp 2016: 53658).
The cells (10^6 cells/ml) were resuspended in 100 μl protein blocking solution with 5 μl fluorescent conjugated antibodies, CD8 (Biolegend Cat #100714, CD45 (Biolegend Cat #103130), CD68 (Biolegend Cat #137004), PD-1 (Biolegend Cat #135219), PD-L1 (Biolegend Cat #124308), CD4 (Biolegend Cat #100510), CD11b (Biolegend Cat #101243), CD11c (Biolegend Cat #117318), F4/80 (Biolegend Cat #123146), or IFNg (Biolegend Cat #505836). Samples were analyzed on a BD LSR II flow cytometer using BD FACSDiva software, and data analysis was performed using Flowjo software (TreeStar, Ashland, OR). Cell populations were identified using sequential gating strategy; the expression of activation markers was presented as median fluorescence intensity. Lung immune cells were classified based on FC marker expression as previously described (Misharin et al., Am J Respir Cell Mol Biol 2013; 49: 503-510).
Mice were grouped as control, challenged with microparticles and treated with saline, challenged and treated with MIA-602 (5 μg), and challenged and treated with methyl prednisolone (100 μg). After two weeks, lungs were harvested from all groups, and lung single cells were generated for flow cytometry analysis.

## C[C@H]1C[C@@H]2[C@H]([C@@H](O)C[C@@]3(C)[C@H]2CC[C@]3(O)C(=O)COC(=O)CCC(=O)[O-])[C@@]2(C)C=CC(=O)C=C12.[Na+] [methyl-prednisone]
[1]
  inflammation in lung samples (inflammation score): did not affect inflammation

## [PhAc-Ada^0-Tyr^1, D-Arg^2, Fpa5^6, Ala^8, Har^9, Tyr(Me)^10, His^11, Orn^12, Abu^15, His^20, Orn^21, Nle^27, D-Arg^28, Har^29]hGH-RH(1-29)NH2 [MIA-602]
Sarcoidosis mice model [2]; FIG. 7
  NOS2 expression: reduced following MIA-602 treatment. The finding was not statistically significant
Sarcoidosis mice model [2]; FIG. 8
  nitrotyrosine levels: reduced the nitrotyrosine levels, but the reduction was not statistically significant
[3]; 5 μg MIA-602 per day intraperitoneal, two weeks, vs granuloma group, H&E
  lung inflammation score: lower inflammation scores; also recorded: almost normalized
[3]; 5 μg MIA-602 per day intraperitoneal, two weeks, IHC
  CD30 cells in lung: nonsignificantly reduced
[3]; 5 μg MIA-602 per day intraperitoneal, two weeks, IHC, changes not statistically significant
  percentage of CD68+ cells in the lung: decreased
[3]; 5 μg MIA-602 per day intraperitoneal, two weeks, IHC, same pattern as CD68+ (increased in granuloma, decreased with MIA-602, not significant)
  PD-1+ cells in the lung: This pattern was seen
[3]; summary of animal model study
  inflammatory cell numbers in lung tissue: reduced inflammatory cell numbers significantly
[1]
  inflammation in lung samples (inflammation score): lower inflammation scores
[4]; FIG. 3A
  survivin levels: no statistical difference between groups
[4]; FIG. 3D
  active caspase 3 level: further increased
[4]; reduced in untreated granuloma, FIG. 3B
  level of Mcl-1/Bak dimer: restored
[4]; vs granuloma treated with saline, FIG. 3C
  BclxL/Bak Dimer levels: increased
[5]
  cytokine production of CCL2: significantly reduced
  cytokine production of CCL5: significantly reduced
  cytokine production of CXCL9: significantly reduced
  cytokine production of IFNα: significantly reduced
  cytokine production of IL2: significantly reduced
  cytokine production of IL7: significantly reduced
  cytokine production of IL10: significantly reduced
  cytokine production of IL12: significantly reduced
  cytokine production of IL15: significantly reduced
  cytokine production of IL17A: significantly reduced
Sarcoidosis mice model [6]
  genes downregulated: 293 genes
  genes upregulated: 778 genes
Sarcoidosis mice model [7]; FIG. 6A
  population of CD45+CD68 cells: significantly reduced
Sarcoidosis mice model [7]; FIG. 6B
  percentage of CD45+CD68+ cells that expressed PD-1: significantly increased
Sarcoidosis mice model [7]; FIG. 6C
  population of CD45+CD68+PD-L1 cells: a higher percentage was detected

## α-melanocyte stimulating hormone [a-MSH]
[1]
  inflammation in lung samples (inflammation score): lower inflammation scores
